Data taken from patent publication US7816332B2, “Stable aqueous solution of natamycin fungicide” (DSM IP Assets B.V., priority 2003, dated 2010).
Where two headings read alike, the source gives them in different places.

Legend:
[1] = Stability of buffered natamycin solutions on storage, HPLC (Example 1); assay type: physicochemical; settings: for amount of natamycin after storage (HPLC): 24 hours at 21° C.
Description: (§1) • An ethanolic aqueous solution having a pH of 12.8 was prepared by mixing 60 ml of a 0.04 N sodium hydroxide solution and 40 ml of 96% ethanol. • While stirring vigorously, 1 g of natamycin was added. The natamycin dissolved within 2 minutes. • Immediately after dissolution, the obtained concentrated natamycin solution was added to 20 l of a 0.01 M citrate buffer solution. A solution containing 57 ppm of natamycin and 0.2% of ethanol with a pH of 6.5 was obtained. • In a similar manner, a solution containing 101 ppm of natamycin and 0.4% of ethanol and a solution containing 202 ppm of natamycin and 0.8% of ethanol was obtained by adding the concentrated natamycin solution to […] of a 0.01 M citrate buffer respectively. Preparation of the Natamycin Solutions (2)
Stability of the Solutions • The amount of natamycin in the compositions (1) was determined after 24 hours storage at 21° C. The amount of natamycin was determined using well-known methods (HPLC) and shown to be 57, 97 and 196 ppm respectively. Hardly any loss of activity was observed after 9 days storage at 6° C. The concentration of natamycin was 49, 100 and 170 ppm respectively. Even after storage for 9 days at 21° C., the concentration of natamycin of the composition containing 101 ppm at t=0 was 99 ppm.

most foodborne fungi = settings: cited from earlier work
[2] = Stability of non-buffered natamycin solutions on storage (Example 2); assay type: physicochemical
Description: This Example describes the rapid preparation of a stable aqueous composition of natamycin in a non-buffered aqueous system with enhanced solubility. • A concentrated natamycin solution was prepared as described in Example 1 (1). • However, after diluting the concentrated natamycin solution in water, the pH was adjusted to 6.4-6.6 using HCL. Finally, solutions containing 101 and 202 ppm of natamycin were obtained. • The amount of natamycin in the compositions was determined after 24 hours storage at 21° C. The concentration of natamycin was 99 and 192 ppm respectively. Hardly any loss of activity was observed after 9 days storage at 6° C. The concentration of natamycin was 98 and 198 ppm respectively. Even after storage for 9 days at 21° C. the concentration of natamycin in the composition containing 101 ppm at t=0 was 82 ppm. […] The amount of dissolved natamycin of these solutions is at least 6 times higher than the maximum solubility in water at the same pH values

most yeasts = settings: cited from earlier work
[3] = Dissolution of natamycin when preparing solutions, with controls (Example 1); assay type: physicochemical
Description: as §1
Controls • 1 g of natamycin was added to a neutral ethanolic aqueous system containing up to 40% of ethanol.

[4] = cited from earlier work

Structure (SMILES): C[C@@H]1C/C=C/C=C/C=C/C=C/[C@H](O[C@@H]2O[C@H](C)[C@@H](O)[C@H](N)[C@@H]2O)C[C@@H]2O[C@](O)(C[C@@H](O)C[C@H]3O[C@@H]3/C=C/C(=O)O1)C[C@H](O)[C@H]2C(=O)O [natamycin]
- amount of dissolved natamycin relative to maximum solubility in water at the same pH ([1]; Example 1 buffered solutions): at least 6 times
- amount of natamycin after storage (HPLC) ([1]; solution with 57 ppm at t=0, 0.2% ethanol, citrate buffer pH 6.5): 57 ppm
- concentration of natamycin after storage ([1]; solution with 57 ppm at t=0, 0.2% ethanol, citrate buffer, 9 days at 6° C.): 49 ppm
- amount of natamycin after storage (HPLC) ([1]; solution with 101 ppm at t=0, 0.4% ethanol, citrate buffer): 97 ppm
- concentration of natamycin after storage ([1]; solution with 101 ppm at t=0, 0.4% ethanol, citrate buffer, 9 days at 6° C.): 100 ppm
- concentration of natamycin after storage ([1]; solution with 101 ppm at t=0, citrate buffer, 9 days at 21° C.): 99 ppm
- amount of natamycin after storage (HPLC) ([1]; solution with 202 ppm at t=0, 0.8% ethanol, citrate buffer): 196 ppm
- concentration of natamycin after storage ([1]; solution with 202 ppm at t=0, 0.8% ethanol, citrate buffer, 9 days at 6° C.): 170 ppm
- minimal inhibitory concentration (most foodborne fungi): less than 10 ppm
- amount of dissolved natamycin relative to maximum solubility in water at the same pH ([2]; Example 2 non-buffered solutions): at least 6 times
- concentration of natamycin after storage ([2]; non-buffered solution with 101 ppm at t=0, pH 6.4-6.6 (HCl), 24 hours at 21° C.): 99 ppm
- concentration of natamycin after storage ([2]; non-buffered solution with 101 ppm at t=0, 9 days at 6° C.): 98 ppm
- concentration of natamycin after storage ([2]; non-buffered solution with 101 ppm at t=0, 9 days at 21° C.): 82 ppm
- concentration of natamycin after storage ([2]; non-buffered solution with 202 ppm at t=0, pH 6.4-6.6 (HCl), 24 hours at 21° C.): 192 ppm
- concentration of natamycin after storage ([2]; non-buffered solution with 202 ppm at t=0, 9 days at 6° C.): 198 ppm
- minimal inhibitory concentration (most yeasts): less than 5 ppm
- time to dissolve ([3]; 1 g natamycin in 100 ml ethanolic aqueous solution of pH 12.8 (0.04 N NaOH / 96% ethanol 60:40), vigorous stirring): ≤ 2 min
- dissolution (control) ([3]; 1 g natamycin in neutral ethanolic aqueous system containing up to 40% ethanol, a few hours of stirring): not fully dissolved
- dissolution (control) ([3]; 200 ppm natamycin in buffered aqueous system, solvent not present): did not dissolve
- dissolution (control) ([3]; 200 ppm natamycin, solvent present, without first raising the pH to 12.8): did not dissolve
- dissolution (control) ([3]; same procedure as Example 1 without adding a solvent): did not dissolve
- maximum solubility ([4]; acetone/water (4:1) system): 110 ppm
- solubility ([4]; ethanol/water (4:1) system): 220 ppm
- solubility ([4]; pure ethanol): 40 ppm
- solubility in water ([4]; water at neutral pH levels): 30 ppm
